Measured values published in US20150141381A1, “TETRACYCLINE COMPOUNDS HAVING TARGET THERAPEUTIC ACTIVITIES” (Paratek Pharmaceuticals, Inc., priority 2001, published 2015).
Read-outs that look alike come from different tables or passages of the source.

Experiments:
S. aureus RN450 = experiment: In Vitro Anti-Bacterial Activity Assay (MIC), gram positive; assay type: cell-based; conditions: Staphylococcus aureus, RN450, 18 h
E. coli mL308 225 = experiment: In Vitro Anti-Bacterial Activity Assay (MIC), gram negative; assay type: cell-based; conditions: Escherichia coli, ML308225, 18 h
[1] = MIC class, Table 3 (Continued), read-out: Gram+ activity
[2] = MIC class, Table 3 (Continued), read-out: Gram− activity
[3] = gram positive bacteria, read-out: Antibiotic Activity Gram + (MIC)
[4] = gram negative bacteria, read-out: Antibiotic Activity Gram − (MIC)
[5] = MIC class, Table 3, read-out: Antibiotic Activity Gram +
[6] = MIC class, Table 3, read-out: Antibiotic Activity Gram −

| SMILES | MIC (S. aureus RN450; [3]) | MIC (E. coli mL308 225; [4]) | MIC (S. aureus RN450; [5]) | MIC (E. coli mL308 225; [6]) | other results |
| --- | --- | --- | --- | --- | --- |
| COc1ccc(Cl)cc1-c1ccc(O)c2c1C[C@H]1C[C@H]3[C@H](N(C)C)C(O)=C(C(N)=O)C(=O)[C@@]3(O)C(O)=C1C2=O | – | – | – | – | MIC (S. aureus RN450; [1]): < 4 µg/mL; MIC (E. coli mL308 225; [2]): < 4 µg/mL |
| CCN(CC)c1ccc(O)c2c1C[C@H]1C[C@H]3[C@H](N(C)C)C(O)=C(C(N)=O)C(=O)[C@@]3(O)C(O)=C1C2=O | < 4 µg/mL | < 4 µg/mL | – | – | – |
| CN(C)[C@@H]1C(O)=C(C(N)=O)C(=O)[C@@]2(O)C(O)=C3C(=O)c4c(O)ccc(C#Cc5ccc(N)cc5)c4C[C@H]3C[C@@H]12 [BE] | – | – | < 4 µg/mL | > 4 µg/mL | – |
| CCCC#Cc1ccc(O)c2c1C[C@H]1C[C@H]3[C@H](N(C)C)C(O)=C(C(N)=O)C(=O)[C@@]3(O)C(O)=C1C2=O [DK] | – | – | > 4 µg/mL | > 4 µg/mL | – |
| COc1ccc(C=O)cc1-c1ccc(O)c2c1C[C@H]1C[C@H]3[C@H](N(C)C)C(O)=C(C(N)=O)C(=O)[C@@]3(O)C(O)=C1C2=O [BC] | – | – | < 4 µg/mL | < 4 µg/mL | – |
| CN(C)c1cc(CNC(=O)Nc2ccc(OC(F)(F)F)cc2)c(O)c2c1C[C@H]1C[C@H]3[C@H](N(C)C)C(O)=C(C(N)=O)C(=O)[C@@]3(O)C(O)=C1C2=O [FO] | – | – | < 4 µg/mL | > 4 µg/mL | – |
| CCOC(=O)c1csc(NCc2cc(N(C)C)c3c(c2O)C(=O)C2=C(O)[C@]4(O)C(=O)C(C(N)=O)=C(O)C(N(C)C)[C@@H]4C[C@@H]2C3)n1 (stereo partly drawn) [MT] | – | – | > 4 µg/mL | > 4 µg/mL | – |
| CN(C)[C@@H]1C(O)=C(C(N)=O)C(=O)[C@@]2(O)C(O)=C3C(=O)c4c(O)ccc(-c5ccc(CN6CCOCC6)o5)c4C[C@H]3C[C@@H]12 [HM] | – | – | < 4 µg/mL | < 4 µg/mL | – |
| CN(C)c1cc(NC(=O)Nc2cccc(F)c2)c(O)c2c1C[C@H]1C[C@H]3[C@H](N(C)C)C(O)=C(C(N)=O)C(=O)[C@@]3(O)C(O)=C1C2=O [DD] | – | – | < 4 µg/mL | > 4 µg/mL | – |
| COC(CN(Cc1ccc(O)c2c1C[C@H]1C[C@H]3[C@@H](N(C)C)C(O)=C(C(N)=O)C(=O)[C@@]3(O)C(O)=C1C2=O)CC(OC)OC)OC [KD] | – | – | < 4 µg/mL | > 4 µg/mL | – |
| COC(=O)C(CC(C)C)NCc1ccc(OC)c(-c2ccc(O)c3c2C[C@H]2C[C@H]4[C@H](N(C)C)C(O)=C(C(N)=O)C(=O)[C@@]4(O)C(O)=C2C3=O)c1 (stereo partly drawn) [FY] | – | – | < 4 µg/mL | > 4 µg/mL | – |
| COc1ccc(C#Cc2cc(N(C)C)c3c(c2O)C(=O)C2=C(O)[C@]4(O)C(=O)C(C(N)=O)=C(O)[C@@H](N(C)C)[C@@H]4C[C@@H]2C3)cc1 | – | – | – | – | MIC (S. aureus RN450; [1]): < 4 µg/mL; MIC (E. coli mL308 225; [2]): < 4 µg/mL |
| C#Cc1cc(CNC(=O)N2CCOCC2)c2c(c1O)C(=O)C1=C(O)[C@]3(O)C(=O)C(C(N)=O)=C(O)[C@@H](N(C)C)[C@@H]3C[C@@H]1C2 | > 4 µg/mL | > 4 µg/mL | – | – | – |
| CCc1ccnc(-c2ccc(O)c3c2C[C@H]2C[C@H]4[C@H](N(C)C)C(O)=C(C(N)=O)C(=O)[C@@]4(O)C(O)=C2C3=O)c1 [NZ] | – | – | < 4 µg/mL | < 4 µg/mL | – |
| COC(=O)CCC(=O)Nc1ccc(-c2ccc(O)c3c2C[C@H]2C[C@H]4[C@H](N(C)C)C(O)=C(C(N)=O)C(=O)[C@@]4(O)C(O)=C2C3=O)cc1 | < 4 µg/mL | > 4 µg/mL | – | – | – |
| CN(C)c1cc(CN)c(O)c2c1C[C@H]1C[C@H]3[C@H](N(C)C)C(O)=C(C(N)=O)C(=O)[C@@]3(O)C(O)=C1C2=O | < 4 µg/mL | > 4 µg/mL | – | – | – |
| CCN(Cc1ccccc1)Cc1cc(N(C)C)c2c(c1O)C(=O)C1=C(O)[C@]3(O)C(=O)C(C(N)=O)=C(O)[C@@H](N(C)C)[C@@H]3C[C@@H]1C2 | < 4 µg/mL | < 4 µg/mL | – | – | – |
| CN(C)CC(=O)Nc1ccc2c(c1O)C(=O)C1=C(O)[C@]3(O)C(=O)C(C(N)=O)=C(O)[C@@H](N(C)C)[C@@H]3C[C@@H]1C2 [DW] | – | – | < 4 µg/mL | < 4 µg/mL | – |
| C[C@H]1c2ccc(CNCCc3ccccc3)c(O)c2C(=O)C2=C(O)[C@]3(O)C(=O)C(C(N)=O)=C(O)[C@@H](N(C)C)[C@@H]3[C@@H](O)[C@@H]21 [JI] | – | – | < 4 µg/mL | < 4 µg/mL | – |
| CCCCCCc1ccc(O)c2c1C[C@H]1C[C@H]3[C@H](N(C)C)C(O)=C(C(N)=O)C(=O)[C@@]3(O)C(O)=C1C2=O | < 4 µg/mL | < 4 µg/mL | – | – | – |
| CN(C)[C@@H]1C(O)=C(C(N)=O)C(=O)[C@@]2(O)C(O)=C3C(=O)c4c(ccc(CNCCC(F)(F)F)c4O)C[C@H]3C[C@@H]12 | < 4 µg/mL | < 4 µg/mL | – | – | – |
| CCc1ccc(-c2cc(N(C)C)c3c(c2O)C(=O)C2=C(O)[C@]4(O)C(=O)C(C(N)=O)=C(O)[C@@H](N(C)C)[C@@H]4C[C@@H]2C3)cc1 [EJ] | – | – | < 4 µg/mL | > 4 µg/mL | – |
| CN(C)c1cc(CN2CCC(C(F)F)CC2)c(O)c2c1C[C@H]1C[C@H]3[C@H](N(C)C)C(O)=C(C(N)=O)C(=O)[C@@]3(O)C(O)=C1C2=O | < 4 µg/mL | < 4 µg/mL | – | – | – |

| SMILES | MIC (S. aureus RN450; [3]) | MIC (E. coli mL308 225; [4]) | MIC (S. aureus RN450; [5]) | MIC (E. coli mL308 225; [6]) | other results |
| --- | --- | --- | --- | --- | --- |
| CCCCOCCCNCc1ccc(OC)c(-c2ccc(O)c3c2C[C@H]2C[C@H]4[C@H](N(C)C)C(O)=C(C(N)=O)C(=O)[C@@]4(O)C(O)=C2C3=O)c1 [FR] | – | – | < 4 µg/mL | < 4 µg/mL | – |
| CC1c2cccc(O)c2C(=O)C2=C(O)[C@]3(O)C(=O)C(C(N)=O)=C(O)[C@@H](N(C)C)[C@@H]3[C@@H](OC(=O)CCC(=O)O)[C@@H]21 (stereo partly drawn) | – | – | – | – | MIC (S. aureus RN450; [1]): < 4 µg/mL; MIC (E. coli mL308 225; [2]): > 4 µg/mL |
| COCc1cncc(-c2ccc(O)c3c2C[C@H]2C[C@H]4[C@H](N(C)C)C(O)=C(C(N)=O)C(=O)[C@@]4(O)C(O)=C2C3=O)c1 | < 4 µg/mL | < 4 µg/mL | – | – | – |
| CCOC(=O)CNCc1ccc(OC)c(-c2ccc(O)c3c2C[C@H]2C[C@H]4[C@H](N(C)C)C(O)=C(C(N)=O)C(=O)[C@@]4(O)C(O)=C2C3=O)c1 | < 4 µg/mL | < 4 µg/mL | – | – | – |
| CN(C)c1cc(CN2CCC(C(F)(F)F)CC2)c(O)c2c1C[C@H]1C[C@H]3[C@H](N(C)C)C(O)=C(C(N)=O)C(=O)[C@@]3(O)C(O)=C1C2=O | < 4 µg/mL | < 4 µg/mL | – | – | – |
| CC(=O)c1ccc(NC(=O)NCc2cc(N(C)C)c3c(c2O)C(=O)C2=C(O)[C@]4(O)C(=O)C(C(N)=O)=C(O)[C@@H](N(C)C)[C@@H]4C[C@@H]2C3)cc1 [FL] | – | – | < 4 µg/mL | > 4 µg/mL | – |
| CCCC(C)c1ccc(OC)c(-c2ccc(O)c3c2C[C@H]2C[C@H]4[C@H](N(C)C)C(O)=C(C(N)=O)C(=O)[C@@]4(O)C(O)=C2C3=O)c1 (stereo partly drawn) | < 4 µg/mL | > 4 µg/mL | – | – | – |
| CN(C)[C@@H]1C(O)=C(C(N)=O)C(=O)[C@@]2(O)C(O)=C3C(=O)c4c(O)ccc(C#Cc5cccc(O)c5)c4C[C@H]3C[C@@H]12 [BI] | – | – | < 4 µg/mL | > 4 µg/mL | – |
| CCCCOc1cccc2c1C(=O)C1=C(O)[C@]3(O)C(=O)C(C(N)=O)=C(O)[C@@H](N(C)C)[C@@H]3[C@@H](O)[C@@H]1[C@H]2C | > 4 µg/mL | > 4 µg/mL | – | – | – |
| CN(C)C1C(O)=C(C(N)=O)C(=O)[C@@]2(O)C(O)=C3C(=O)c4c(O)ccc(-c5ccc(CN6CCCC6)c6ccccc56)c4C[C@H]3C[C@@H]12 (stereo partly drawn) [GH] | – | – | < 4 µg/mL | < 4 µg/mL | – |
| CCc1cc(CNC(=O)N2CCOCC2)c2c(c1O)C(=O)C1=C(O)[C@]3(O)C(=O)C(C(N)=O)=C(O)[C@@H](N(C)C)[C@@H]3C[C@@H]1C2 | > 4 µg/mL | > 4 µg/mL | – | – | – |
| CN(C)[C@@H]1C(O)=C(C(N)=O)C(=O)[C@@]2(O)C(O)=C3C(=O)c4c(O)ccc(C#CCCC#Cc5ccc(O)c6c5C[C@@]5(C)C[C@@]7(C)[C@H](N(C)C)C(O)C(C(N)=O)C(=O)[C@@]7(O)C(O)=C5C6=O)c4C[C@@]3(C)C[C@@]12C (stereo partly drawn) | > 4 µg/mL | > 4 µg/mL | – | – | – |
| CN(C)[C@@H]1C(O)=C(C(N)=O)C(=O)[C@@]2(O)C(O)=C3C(=O)c4c(O)ccc(CN5CCOCC5)c4C[C@H]3C[C@@H]12 | < 4 µg/mL | > 4 µg/mL | – | – | – |
| NC(=O)C1=C(O)C[C@@H]2C[C@@H]3Cc4ccc(CN5CCCCC5)c(O)c4C(=O)C3=C(O)[C@]2(O)C1=O | > 4 µg/mL | > 4 µg/mL | – | – | – |
| CC#Cc1cc(C#CC)c2c(c1O)C(=O)C1=C(O)[C@]3(O)C(=O)C(C(N)=O)=C(O)[C@@H](N(C)C)[C@@H]3C[C@@H]1C2 | > 4 µg/mL | > 4 µg/mL | – | – | – |
| CN(C)c1cc(NC(=O)Oc2ccccc2)c(O)c2c1C[C@H]1C[C@H]3[C@H](N(C)C)C(O)=C(C(N)=O)C(=O)[C@@]3(O)C(O)=C1C2=O [drawing 3360] | – | – | – | – | MIC (S. aureus RN450; read-out: Antibiotic Activity Gram + (MIC)): > 4 µg/mL; MIC (E. coli mL308 225; read-out: Antibiotic Activity Gram − (MIC)): > 4 µg/mL |
| Cc1cc(CNCc2cc(N(C)C)c3c(c2O)C(=O)C2=C(O)[C@]4(O)C(=O)C(C(N)=O)=C(O)[C@@H](N(C)C)[C@@H]4C[C@@H]2C3)c(C(F)(F)F)o1 | < 4 µg/mL | < 4 µg/mL | – | – | – |
| CN(C)c1cc(CNCc2cc[n+]([O-])cc2)c(O)c2c1C[C@H]1C[C@H]3[C@H](N(C)C)C(O)=C(C(N)=O)C(=O)[C@@]3(O)C(O)=C1C2=O | > 4 µg/mL | > 4 µg/mL | – | – | – |
| CN(C)[C@@H]1C(O)=C(C(N)=O)C(=O)[C@@]2(O)C(O)=C3C(=O)c4c(O)ccc(-c5ccc(F)c(C=O)c5)c4C[C@H]3C[C@@H]12 | < 4 µg/mL | < 4 µg/mL | – | – | – |
| CN(C)[C@H]1C(O)=C(C(N)=O)C(=O)[C@@]2(O)C(O)=C3C(=O)c4c(O)ccc(-c5ncccn5)c4C[C@H]3C[C@@H]12 [PX] | – | – | < 4 µg/mL | > 4 µg/mL | – |
| CN1CCC(N(C)c2ccc3c(c2O)C(=O)C2=C(O)[C@]4(O)C(=O)C(C(N)=O)=C(O)[C@@H](N(C)C)[C@@H]4C[C@@H]2C3)CC1 | > 4 µg/mL | > 4 µg/mL | – | – | – |
| COC(=O)CCC(=O)Nc1ccc2c(c1O)C(=O)C1=C(O)[C@]3(O)C(=O)C(C(N)=O)=C(O)[C@@H](N(C)C)[C@@H]3C[C@@H]1C2 [IB] | – | – | > 4 µg/mL | > 4 µg/mL | – |
